In ChEMBL document CHEMBL1156391, “Screening of triterpenoids isolated from Phyllanthus flexuosus for DNA topoisomerase inhibitory activity” (J Nat Prod, 2001):
Activity calls are given as the source filed them. The calls are words filed in the database; no cut-off is given here.

Assays:
[1] = biological target: T1, DNA topoisomerase 2-alpha (Homo sapiens, UniProt P11388); test: Inhibition of 1 unit human topoisomerase 2alpha catalytic activity assessed as relaxation of 198 ng supercoiled pBR322 DNA at 100 uM by agarose gel electrophoresis
[2] = biological target: T2, DNA topoisomerase 1 (Homo sapiens) (UniProt P11387); test: Inhibition of human topoisomerase 1 assessed as relaxation of supercoiled pBR322 DNA up to 200 uM by agarose gel electrophoresis
T2 sequence (whole entry): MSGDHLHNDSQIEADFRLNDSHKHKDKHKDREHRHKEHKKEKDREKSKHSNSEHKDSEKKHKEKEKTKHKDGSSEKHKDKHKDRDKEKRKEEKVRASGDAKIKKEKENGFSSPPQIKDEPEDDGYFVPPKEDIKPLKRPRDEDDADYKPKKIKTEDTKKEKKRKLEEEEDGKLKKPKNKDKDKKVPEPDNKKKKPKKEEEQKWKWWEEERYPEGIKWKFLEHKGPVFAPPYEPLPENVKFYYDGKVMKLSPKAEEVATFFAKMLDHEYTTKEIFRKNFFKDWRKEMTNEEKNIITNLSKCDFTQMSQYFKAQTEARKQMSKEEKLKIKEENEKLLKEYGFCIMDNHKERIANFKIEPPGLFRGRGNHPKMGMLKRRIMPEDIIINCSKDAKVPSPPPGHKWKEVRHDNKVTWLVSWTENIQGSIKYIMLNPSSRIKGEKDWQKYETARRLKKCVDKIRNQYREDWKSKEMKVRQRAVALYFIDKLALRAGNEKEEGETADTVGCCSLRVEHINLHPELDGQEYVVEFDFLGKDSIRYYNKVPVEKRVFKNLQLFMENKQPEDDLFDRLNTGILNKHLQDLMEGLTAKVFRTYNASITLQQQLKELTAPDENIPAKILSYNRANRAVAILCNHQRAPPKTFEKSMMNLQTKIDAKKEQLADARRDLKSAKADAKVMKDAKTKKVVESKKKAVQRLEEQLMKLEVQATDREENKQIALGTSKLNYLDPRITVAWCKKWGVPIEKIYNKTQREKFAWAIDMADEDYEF

[3] = biological target: T1, DNA topoisomerase 2-alpha; test: Inhibition of human 1 unit topoisomerase 2alpha catalytic activity assessed as relaxation of 198 ng supercoiled pBR322 DNA by agarose gel electrophoresis
[4] = biological target: T1, DNA topoisomerase 2-alpha; test: Inhibition of 1 unit human topoisomerase 2alpha catalytic activity assessed as relaxation of 198 ng supercoiled pBR322 DNA at 200 uM by agarose gel electrophoresis

T1 sequence (P11388 whole entry): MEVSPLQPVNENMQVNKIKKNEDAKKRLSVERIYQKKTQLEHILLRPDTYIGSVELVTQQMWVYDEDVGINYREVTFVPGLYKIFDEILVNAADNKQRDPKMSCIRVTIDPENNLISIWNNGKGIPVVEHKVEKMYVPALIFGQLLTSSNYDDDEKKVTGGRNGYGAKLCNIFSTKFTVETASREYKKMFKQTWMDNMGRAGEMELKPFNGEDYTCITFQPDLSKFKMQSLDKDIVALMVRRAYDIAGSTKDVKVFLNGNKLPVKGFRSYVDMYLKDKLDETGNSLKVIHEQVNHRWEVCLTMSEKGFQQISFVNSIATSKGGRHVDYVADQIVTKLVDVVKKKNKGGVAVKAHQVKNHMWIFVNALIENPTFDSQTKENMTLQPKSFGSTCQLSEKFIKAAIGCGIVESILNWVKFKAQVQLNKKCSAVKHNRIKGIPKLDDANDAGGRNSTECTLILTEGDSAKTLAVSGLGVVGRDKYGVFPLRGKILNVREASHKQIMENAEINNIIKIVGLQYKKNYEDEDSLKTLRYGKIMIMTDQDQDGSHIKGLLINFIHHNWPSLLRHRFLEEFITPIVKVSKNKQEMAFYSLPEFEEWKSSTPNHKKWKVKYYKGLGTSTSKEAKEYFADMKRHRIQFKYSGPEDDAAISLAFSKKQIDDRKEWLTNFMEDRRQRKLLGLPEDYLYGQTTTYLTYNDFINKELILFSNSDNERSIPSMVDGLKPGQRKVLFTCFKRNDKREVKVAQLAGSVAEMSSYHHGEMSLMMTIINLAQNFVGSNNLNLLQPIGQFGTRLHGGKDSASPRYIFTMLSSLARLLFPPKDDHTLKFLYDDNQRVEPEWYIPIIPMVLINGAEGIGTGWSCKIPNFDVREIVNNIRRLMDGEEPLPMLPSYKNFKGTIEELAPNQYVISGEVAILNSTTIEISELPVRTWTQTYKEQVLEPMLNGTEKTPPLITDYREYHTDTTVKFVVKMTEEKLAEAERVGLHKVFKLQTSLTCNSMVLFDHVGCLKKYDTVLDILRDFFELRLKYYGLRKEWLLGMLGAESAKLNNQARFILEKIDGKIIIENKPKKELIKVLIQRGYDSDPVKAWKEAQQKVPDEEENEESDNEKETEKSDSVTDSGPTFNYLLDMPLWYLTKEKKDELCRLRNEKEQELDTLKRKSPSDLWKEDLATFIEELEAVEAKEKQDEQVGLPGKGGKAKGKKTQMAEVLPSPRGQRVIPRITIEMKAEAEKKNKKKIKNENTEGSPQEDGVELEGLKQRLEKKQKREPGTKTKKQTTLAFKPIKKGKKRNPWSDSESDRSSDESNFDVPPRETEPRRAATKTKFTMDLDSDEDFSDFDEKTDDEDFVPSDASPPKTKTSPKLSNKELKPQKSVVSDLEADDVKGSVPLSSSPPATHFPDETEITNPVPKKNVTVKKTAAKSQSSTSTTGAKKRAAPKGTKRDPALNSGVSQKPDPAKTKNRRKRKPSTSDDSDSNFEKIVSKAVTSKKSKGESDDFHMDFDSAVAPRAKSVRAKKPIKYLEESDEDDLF

Activity [1]	Activity [2]	Activity [3]	IC50 [3] [µM]	inhibition [4]	SMILES
Active	inactive	Dose-dependent effect	17.5	–	CC1(C)CC[C@]2(C)C[C@H](O)[C@]3(C)C(=CC[C@@H]4[C@@]5(C)CC[C@H](O)C(C)(C)[C@@H]5CC[C@]43C)[C@@H]2C1
–	inactive	–	> 200	33%	CC1(C)CC[C@]2(C)CC[C@]3(C)C(=CC[C@@H]4[C@@]5(C)CC[C@H](O)[C@](C)(CO)[C@@H]5CC[C@]43C)[C@@H]2C1
Active	inactive	Dose-dependent effect	38.7	–	CC1(C)CC[C@]2(C)C[C@H](O)[C@]3(C)C(=CC[C@@H]4[C@@]5(C)CC[C@H](O)[C@](C)(CO)[C@@H]5CC[C@]43C)[C@@H]2C1

Further lines, the compound ahead of its results:

SMILES	Activity [1]	Activity [2]	Activity [3]	IC50 [3] [µM]	inhibition [4]
C=C(C)[C@@H]1CC[C@]2(C)CC[C@]3(C)[C@H](CC[C@@H]4[C@@]5(C)CC[C@H](O)C(C)(C)[C@@H]5CC[C@]43C)[C@@H]12 [LUPEOL]	Active	inactive	Dose-dependent effect	10.4	–
C=C(C)[C@@H]1CC[C@]2(CO)CC[C@]3(C)[C@H](CC[C@@H]4[C@@]5(C)CC[C@H](O)C(C)(C)[C@@H]5CC[C@]43C)[C@@H]12 [BETULIN]	Active	inactive	Dose-dependent effect	38.6	–
C=C(C)[C@@H]1CC[C@]2(C)CC[C@]3(C)[C@H](CC[C@@H]4[C@@]5(C)CC[C@H](O)[C@](C)(CO)[C@@H]5CC[C@]43C)[C@H]12	–	inactive	–	–	inactive
